Values of other authors as cited in US20230354819A1 (priority 2020, published 2023).
Bridge positions count the residues as written; N and C are the ends. Square brackets hold non-standard residues; d marks the D form. Peptide text beside a SMILES is read from it. * marks the point of attachment. ξ: configuration not given here. Pentadecanoyl(3ξ-OH,15-Gua) = N=C(N)NCCCCCCCCCCCCC(O)CC(=O)*; d(aThr) = C[C@@H](O)[C@@H](N)C(=O)O; Thr(3ξ) = CC(O)[C@H](N)C(=O)O; ξY = NC(Cc1ccc(O)cc1)C(=O)O

Key:
[1] = test system: plant pathogenic fungi such as Fusarium oxysporum, Aspergillus niger, Aspergillus oryzae, and Penicillium thomii; settings: J. Antibiotics 49(2), 129-135, 1996; 50(3), 220-228, 1997
Fusarium oxysporum = settings: WO 2006/016558
Staphylococcus aureus = test system: Staphylococcus aureus; set-up: unit not given here; settings: variety of clinically relevant fungi and gram-positive bacteria such a Staphylococcus aureus; ChemMedChem 7, 871-882, 2012

Structure (SMILES) | inhibition of plant pathogenic fungi [1] | inhibition of growth of Fusarium oxysporum (Fusarium oxysporum) | MIC value range (Staphylococcus aureus)
CC(C)[C@@H]1NC(=O)[C@@H](C(C)C)NC(=O)[C@@H](NC(=O)CC(O)CCCCCCCCCCCCN=C(N)N)C(C)OC(=O)[C@@H](C)NC(=O)[C@@H](CCC(N)=O)NC(=O)[C@@H]([C@H](C)O)NC1=O (stereo in doubt) [fusaricidin B] | inhibit plant pathogenic fungi | inhibit growth | 
CC(C)[C@@H]1NC(=O)[C@@H](C(C)C)NC(=O)[C@@H](NC(=O)CC(O)CCCCCCCCCCCCN=C(N)N)[C@@H](C)OC(=O)[C@@H](C)NC(=O)[C@@H](CC(N)=O)NC(=O)[C@@H]([C@@H](C)O)NC1=O (stereo partly shown) [fusaricidin A] ({Pentadecanoyl(3ξ-OH,15-Gua)}-T[dV]V[d(aThr)][dN][dA]; ester 1-C) | inhibit plant pathogenic fungi | inhibit growth | 0.78-3.12
CC1OC(=O)[C@@H](C)NC(=O)[C@@H](CC(N)=O)NC(=O)[C@@H]([C@H](C)O)NC(=O)C(Cc2ccc(O)cc2)NC(=O)[C@@H](C(C)C)NC(=O)[C@H]1NC(=O)CC(O)CCCCCCCCCCCCN=C(N)N (stereo partly shown) [fusaricidin C] ({Pentadecanoyl(3ξ-OH,15-Gua)}-[Thr(3ξ)][dV][ξY][dT][dN][dA]; ester 1-C) | inhibit plant pathogenic fungi |  | 
CC1OC(=O)[C@@H](C)NC(=O)[C@@H](CCC(N)=O)NC(=O)[C@@H]([C@H](C)O)NC(=O)C(Cc2ccc(O)cc2)NC(=O)[C@@H](C(C)C)NC(=O)[C@H]1NC(=O)CC(O)CCCCCCCCCCCCN=C(N)N (stereo partly shown) [fusaricidin D] ({Pentadecanoyl(3ξ-OH,15-Gua)}-[Thr(3ξ)][dV][ξY][dT][dQ][dA]; ester 1-C) | inhibit plant pathogenic fungi |  | 
